The record followed here is ChEMBL document CHEMBL4038283, “Synthesis of conformationally restricted 1,3-dioxanes to analyze the bioactive conformation of 1,3-dioxane-based σ1 and PCP receptor antagonists” (Bioorg Med Chem, 2017).

Test [1] concerns the target Sigma non-opioid intracellular receptor 1 (Cavia porcellus, UniProt Q60492). Briefly: Displacement of [3H]-(+)-pentazocine from sigma1 receptor in guinea pig brain cortex membrane incubated for 120 mins measured for 5 mins by scintillation counting method. It is filed as cell membranes. For orientation: Displacement assays read how much labelled ligand stays bound in the presence of the test substance.

Test [2] has as its target T1, Sigma intracellular receptor 2 (Rattus norvegicus, UniProt Q5U3Y7).
T1 sequence (Q5U3Y7 whole entry): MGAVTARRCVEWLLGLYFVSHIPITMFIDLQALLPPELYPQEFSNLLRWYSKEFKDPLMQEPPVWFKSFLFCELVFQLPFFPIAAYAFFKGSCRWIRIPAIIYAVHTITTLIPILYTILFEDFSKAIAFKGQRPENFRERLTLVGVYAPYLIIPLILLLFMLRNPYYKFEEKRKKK
Briefly: Displacement of [3H]-di-o-tolylguanidine from sigma2 receptor in rat liver membrane incubated for 120 mins measured for 5 mins by scintillation counting method. The class given is cell membranes.

The nature of test [3]: Displacement of [3H]-(+)-MK-801 from NMDA PCP binding site in pig brain cortex membrane incubated for 120 mins measured for 5 mins by scintillation counting method. It is filed as cell membranes, Sus scrofa.

Bounds are passed on as bounds.

Sequence of Sigma non-opioid intracellular receptor 1 (Q60492 whole entry): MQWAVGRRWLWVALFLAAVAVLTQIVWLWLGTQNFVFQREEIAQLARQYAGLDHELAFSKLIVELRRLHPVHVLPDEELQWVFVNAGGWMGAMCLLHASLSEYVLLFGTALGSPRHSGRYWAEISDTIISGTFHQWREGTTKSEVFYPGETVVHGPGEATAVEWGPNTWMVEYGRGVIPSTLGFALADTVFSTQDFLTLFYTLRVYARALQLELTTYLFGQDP

What is called Ki is a measure of affinity in units of concentration, obtained from inhibition or displacement. In the case of `NCCC1CC2OC(Cc3ccccc32)O1` (mixture of isomers), the Ki in test [1], in test [2] and in test [3] was greater than 1000 nM each time.

For `CN(C)CCC1CC2OC(Cc3ccccc32)O1` (racemic), the Ki in test [1], in test [2] and in test [3] was greater than 1000 nM each time.

As to `NCCC1CC2OC(Cc3ccccc32)O1` (racemic), the Ki in test [1] and in test [2] was greater than 1000 nM in each case.

In the case of `c1ccc(CNCCC2CC3OC(Cc4ccccc43)O2)cc1` (racemic; 21a), the Ki was 30 nM in test [1], greater than 1000 nM in test [2] and greater than 1000 nM in test [3].

`c1ccc(CNCCC2CC3OC(Cc4ccccc43)O2)cc1` (racemic; 21b): the inhibitory constant (Ki) in test [1] was found to be 5.9 nM; in test [2] it was 153 nM.

`c1ccc(CN(CCC2CC3OC(Cc4ccccc43)O2)Cc2ccccc2)cc1` (racemic; 22a): the results for the inhibition constant Ki in test [1], in test [2] and in test [3] were 1400 nM, greater than 1000 nM and greater than 1000 nM, respectively.

As to `c1ccc(CN(CCC2CC3OC(Cc4ccccc43)O2)Cc2ccccc2)cc1` (racemic; 22b), the inhibition constant (Ki) in test [1] is 782 nM; in test [2], greater than 1000 nM.
